In US20260217687A1 (NeoPhore Limited, priority 2023, published 2026):

What follows are compounds tested against T1, recombinant N-terminal MLH1 (residues 15-340) (Homo sapiens, UniProt P40692) (assay: Fluorescence Polarisation Assay for MLH1). Settings: 100 nM N-terminal MLH1, 5 nM probe compound.
T1 construct: recombinant N-terminal MLH1 (residues 15-340)
T1 sequence (P40692 15-340): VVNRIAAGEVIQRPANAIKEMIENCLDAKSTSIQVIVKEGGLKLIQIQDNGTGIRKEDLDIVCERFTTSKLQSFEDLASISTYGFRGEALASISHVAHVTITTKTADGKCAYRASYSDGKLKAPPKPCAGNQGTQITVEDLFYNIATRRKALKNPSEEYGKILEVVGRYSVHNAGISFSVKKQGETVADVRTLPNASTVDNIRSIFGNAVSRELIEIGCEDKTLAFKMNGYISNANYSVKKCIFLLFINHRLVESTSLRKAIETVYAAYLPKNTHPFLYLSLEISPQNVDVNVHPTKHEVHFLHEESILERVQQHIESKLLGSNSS
Assay type: binding
Summary of the method: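 Fluorescence polarisation displacement: 100 nM MLH1 (15-340) preincubated 30 min at room temperature with compound, then 5 nM rhodamine-labelled probe added and read immediately. Buffer 25 mM HEPES pH 7.5, 250 mM NaCl, 10 mM MgCl2, 0.01% Triton X-100, 5 mM DTT; normalised to no-inhibitor and no-enzyme controls.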

Row | SMILES | IC50 [µM]
1 | O=C(c1c(O)cc(C(F)F)cc1OCc1ccccc1)N1CCCc2cc(NC3CCOC3)ccc21 (centres unmarked) [Example 27.19, (2-(Benzyloxy)-4-(difluoromethyl)-6-hydroxyphenyl)(6-((tetrahydrofuran-3-yl)amino)-3,4-dihydroquinolin-1(2H)-yl)methanone] | 1 to 10
2 | O=C(c1c(O)cc(C(F)F)cc1OCc1ccccc1)N1CCc2ccc(NC3CCOC3)cc21 (single isomer, unassigned) [Example 27.2a, (S)-(2-(Benzyloxy)-4-(difluoromethyl)-6-hydroxyphenyl)(6-((tetrahydrofuran-3-yl)amino)indolin-1-yl)methanone or (R)-(2-(Benzyloxy)-4-(difluoromethyl)-6-hydroxyphenyl)(6-((tetrahydrofuran-3-yl)amino)indolin-1-yl)methanone] | 0.1 to 1
3 | O=C(c1c(O)cc(C(F)F)cc1OCc1ccccc1)N1CCc2cnccc21 [Example 27.21, (2-(Benzyloxy)-4-(difluoromethyl)-6-hydroxyphenyl)(2,3-dihydro-1H-pyrrolo[3,2-c]pyridin-1-yl)methanone] | 1 to 10
4 | COc1ccc(COc2cc(C(F)F)cc(O)c2C(=O)N2CCc3cccc(N[C@H]4CCOC4)c3C2)cc1 [Example 4.11, (S)-(4-(Difluoromethyl)-2-hydroxy-6-((4-methoxybenzyl)oxy)phenyl)(8-((tetrahydrofuran-3-yl)amino)-3,4-dihydroisoquinolin-2(1H)-yl)methanone] | 0.1 to 1
5 | O=C(c1c(O)cc(C(F)F)cc1OCc1ccccc1)N1Cc2cccc(N[C@H]3CCOC3)c2C1 [Example 4, (S)-(2-(Benzyloxy)-4-(difluoromethyl)-6-hydroxyphenyl)(4-((tetrahydrofuran-3-yl)amino)isoindolin-2-yl)methanone] | 0.1 to 1
6 | N#Cc1cc(O)c(C(=O)N2Cc3cccc(N[C@H]4CCOC4)c3C2)c(OCc2ccccn2)c1 [Example 10.39, (S)-3-Hydroxy-5-(pyridin-2-ylmethoxy)-4-(4-((tetrahydrofuran-3-yl)amino)isoindoline-2-carbonyl)benzonitrile] | 0.1 to 1
7 | O=C(c1c(O)cc(C(F)F)cc1OCc1ccccc1)N1Cc2ccc(Oc3ccncn3)cc2C1 [Example 4.61] | 0.1 to 1
8 | COc1cc(O)c(C(=O)N2Cc3cccc(N[C@H]4CCOC4)c3C2)c(OCc2ccccc2)c1 [Example 1, (S)-(2-(Benzyloxy)-6-hydroxy-4-methoxyphenyl)(4-((tetrahydrofuran-3-yl)amino)isoindolin-2-yl)methanone] | 0.1 to 1
9 | N#Cc1cc(O)c(C(=O)N2Cc3cccc(NC4COC4)c3C2)c(OCc2ccccn2)c1 [Example 10.38, 3-Hydroxy-4-(4-(oxetan-3-ylamino)isoindoline-2-carbonyl)-5-(pyridin-2-ylmethoxy)benzonitrile] | 1 to 10
10 | O=C(c1c(O)cc(Cl)cc1OCc1ccccc1)N1Cc2cccc(N[C@H]3CCOC3)c2C1 [Example 8, (S)-(2-(Benzyloxy)-4-chloro-6-hydroxyphenyl)(4-((tetrahydrofuran-3-yl)amino)isoindolin-2-yl)methanone] | 0.1 to 1
11 | CNc1cccc2c1CN(C(=O)c1c(O)cc(C(F)F)cc1OCc1ccccc1)C2 [Example 4.34, (2-(Benzyloxy)-4-(difluoromethyl)-6-hydroxyphenyl) (4-(methylamino)isoindolin-2-yl) methanone] | 1 to 10
12 | CC(=O)N1CC(Nc2cccc3c2CN(C(=O)c2c(O)cc(C(F)F)cc2OCc2ccccc2)C3)C1 [Example 4.3, 1-(3-((2-(2-(Benzyloxy)-4-(difluoromethyl)-6-hydroxybenzoyl)isoindolin-4-yl)amino)azetidin-1-yl)ethan-1-one] | 0.1 to 1
13 | Cn1cncc1-c1cc2c(c(N[C@H]3CCOC3)c1)CN(C(=O)c1c(O)cc(C(F)F)cc1OCc1ccccc1)C2 [Example 4.24, (S)-(2-(Benzyloxy)-4-(difluoromethyl)-6-hydroxyphenyl)(6-(1-methyl-1H-imidazol-5-yl)-4-((tetrahydrofuran-3-yl)amino)isoindolin-2-yl)methanone] | 0.1 to 1
14 | Nc1cc2c(cn1)CN(C(=O)c1c(O)cc(C(F)F)cc1OCc1ccccc1)C2 [Example 27.11, (6-Amino-1,3-dihydro-2H-pyrrolo[3,4-c]pyridin-2-yl)(2-(benzyloxy)-4-(difluoromethyl)-6-hydroxyphenyl)methanone hydroformate] | 0.1 to 1
15 | CN(C)CCOc1cc2c(c(N[C@@H]3CCOC3)c1)CN(C(=O)c1c(O)cc(C#N)cc1OCc1ccccc1)C2 [Example 18, (R)-3-(Benzyloxy)-4-(6-(2-(dimethylamino)ethoxy)-4-((tetrahydrofuran-3-yl)amino)isoindoline-2-carbonyl)-5-hydroxybenzonitrile] | 0.1 to 1
16 | COc1ccc2c(c1)CN(C(=O)c1c(O)cc(C#N)cc1OCc1ccccc1)C2 [Example 13, 3-(Benzyloxy)-5-hydroxy-4-(5-methoxyisoindoline-2-carbonyl)benzonitrile] | 1 to 10
17 | N#Cc1cc(O)c(C(=O)N2Cc3cccc(NC4COC(=O)C4)c3C2)c(OCc2ccccc2)c1 (centres unmarked) [Example 10.19, 3-(Benzyloxy)-5-hydroxy-4-(4-((5-oxotetrahydrofuran-3-yl)amino)isoindoline-2-carbonyl)benzonitrile] | 0.1 to 1
18 | CC(=O)N1CC[C@@H](Nc2cccc3c2CN(C(=O)c2c(O)cc(C#N)cc2OCc2ccccc2)C3)C1 [Example 10.5, (R)-4-(4-((1-Acetylpyrrolidin-3-yl)amino)isoindoline-2-carbonyl)-3-(benzyloxy)-5-hydroxybenzonitrile] | 0.1 to 1
19 | CC(=O)N1CC[C@H](Nc2cccc3c2CN(C(=O)c2c(O)cc(C#N)cc2OCc2ccccc2)C3)C1 [Example 10.6, (S)-4-(4-((1-Acetylpyrrolidin-3-yl)amino)isoindoline-2-carbonyl)-3-(benzyloxy)-5-hydroxybenzonitrile] | 0.1 to 1
20 | N#Cc1cc(O)c(C(=O)N2Cc3cccc(NCC4CCOC4)c3C2)c(OCc2ccccc2)c1 (centres unmarked) [Example 10.10, 3-(Benzyloxy)-5-hydroxy-4-(4-(((tetrahydrofuran-3-yl)methyl)amino)isoindoline-2-carbonyl)benzonitrile] | 1 to 10
